Assay results published in US20250122192A1, “5-PYRIMIDINECARBOXAMIDE DERIVATIVES AND METHODS OF USING THE SAME” (Rgenta Therapeutics, Inc., priority 2021, published 2025).

Each molecule was assayed on PMS1 (assay: Mini-gene reporter assay-PMS1). Details: Homo sapiens, HEK293, PMS1 mini-gene firefly luciferase reporter transiently transfected into HEK293 cells; read-out: PMS1 IC50.
Type: cell-based
Text: Biological Activity of the Compounds of the Present Disclosure Mini-gene reporter assay-PMS1
Mini-gene reporter constructs for each target site can be constructed by first PCR amplifying the region-of-interest including the sequence of the alternatively skipped, sequences of the immediate upstream and downstream introns, and sequences of the immediate upstream and downstream exons. Then the 3′end of the amplified sequence can be ligated to a firefly luciferase reporter gene and cloned into the pcDNA3.1 vector backbone. The final reporter construct can be transiently transfected into HEK293 cells using Lipofectamine 3000 transfection reagents. Compounds that can induce the inclusion of the skipped exon in the reporter construct would increase the reporter firefly luciferase activity.
Test compounds may be diluted in duplicates and dispensed into an assay plate. Transient mini-gene reporter cell line stock is resuspended and dispensed into the assay plate. Assay plates are then centrifuged and incubated. A luciferase reagent (e.g. ONE-Glo firefly luciferase reagent from Promega®) may be added to the assay plate and the luminescence (RLU) signals recorded. PMS1 EC50 values may be determined by curve fitting in Levenberg-Marquardt algorithm.

SMILES | IC50 [nM]
CCOc1nc(N2CCC(NC)C2)ncc1C(=O)Nc1cn2cc(C)nc2c(C)n1 (stereo not shown) [Compound 99] | < 500
CCNC1CN(c2ncc(C(=O)Nc3cn4cc(C)nc4c(C)n3)c(OCC)n2)C1 [Compound 100] | > 3000
CCOc1nc(N2CCNC(C)C2)ncc1C(=O)Nc1cn2cc(C)nc2c(C)n1 (stereo not shown) [Compound 102] | 500 to 1000
CCOc1nc(N2CCCNCC2)ncc1C(=O)Nc1cn2cc(C)nc2c(C)n1 [Compound 103] | 1000 to 3000
CCOc1nc(N2CC3(CNCCO3)C2)ncc1C(=O)Nc1cn2cc(C)nc2c(C)n1 [Compound 104] | > 3000
CCOc1nc(N2CCC3(CCCNC3)C2)ncc1C(=O)Nc1cn2cc(C)nc2c(C)n1 (stereo not shown) [Compound 106] | > 3000
CCOc1nc(N2CCC(N3CCNCC3)C2)ncc1C(=O)Nc1cc(F)c2nc(C)cn2c1 (stereo not shown) [Compound 107] | 1000 to 3000
CCOc1nc(N2CCCC(C3CCNC3)C2)ncc1C(=O)Nc1cc(F)c2nc(C)cn2c1 (stereo not shown) [Compound 108] | 500 to 1000
CCOc1nc(N2CCNCC(CO)C2)ncc1C(=O)Nc1cc(F)c2nc(C)cn2c1 (stereo not shown) [Compound 109] | 1000 to 3000
CCOc1nc(N2CCNC(CC(F)F)C2)ncc1C(=O)Nc1cc(F)c2nc(C)cn2c1 (stereo not shown) [Compound 110] | 1000 to 3000
CCOc1nc(N2CCNC(CF)C2)ncc1C(=O)Nc1cc(F)c2nc(C)cn2c1 (stereo not shown) [Compound 111] | > 3000
CCOc1nc(N2CCNCC2C(F)F)ncc1C(=O)Nc1cc(F)c2nc(C)cn2c1 (stereo not shown) [Compound 112] | 1000 to 3000
CCOc1nc(N2CCNCC2C2CC2)ncc1C(=O)Nc1cc(F)c2nc(C)cn2c1 (stereo not shown) [Compound 113] | 1000 to 3000
CCOc1nc(N2CC3=C(CNC3)C2)ncc1C(=O)Nc1cc(F)c2nc(C)cn2c1 [Compound 114] | < 500
CCOc1nc(N2CCNC(C(F)F)C2)ncc1C(=O)Nc1cc(F)c2nc(C)cn2c1 (stereo not shown) [Compound 115] | > 3000
CCOc1nc(N2CCNCC3(CC3)C2)ncc1C(=O)Nc1cc(F)c2nc(C)cn2c1 [Compound 116] | < 500
CCOc1nc(N(C)C[C@H]2[C@@H]3CNC[C@@H]32)ncc1C(=O)Nc1cc(F)c2nc(C)cn2c1 [Compound 117] | 1000 to 3000
CCOc1nc(N2CCNCC(C)(C)C2)ncc1C(=O)Nc1cc(F)c2nc(C)cn2c1 [Compound 118] | 1000 to 3000
CCOc1nc(N2CCC(CNC(C)C)CC2)ncc1C(=O)Nc1cc(F)c2nc(C)cn2c1 [Compound 119] | < 500
CCOc1nc(N2CCC(C3CCCN3)C2)ncc1C(=O)Nc1cc(F)c2nc(C)cn2c1 (stereo not shown) [Compound 120] | < 500
CCOc1nc(N2CCCNC(CO)C2)ncc1C(=O)Nc1cc(F)c2nc(C)cn2c1 (stereo not shown) [Compound 121] | 1000 to 3000
CCOc1nc(N2CCCC3NCCCC32)ncc1C(=O)Nc1cc(F)c2nc(C)cn2c1 (stereo not shown) [Compound 122] | 500 to 1000
CCOc1nc(N2CCC(C3NCC3(C)C)CC2)ncc1C(=O)Nc1cc(F)c2nc(C)cn2c1 (stereo not shown) [Compound 123] | < 500

SMILES | IC50 [nM]
CCOc1nc(N2CC3C4CCC(NC4)C3C2)ncc1C(=O)Nc1cc(F)c2nc(C)cn2c1 (stereo not shown) [Compound 125] | 500 to 1000
CCOc1nc(N2CCC3CCCC(C2)N3)ncc1C(=O)Nc1cc(F)c2nc(C)cn2c1 (stereo not shown) [Compound 126] | 1000 to 3000
CCOc1nc(N2CCC(C3CCNC3)C2)ncc1C(=O)Nc1cc(F)c2nc(C)cn2c1 (stereo not shown) [Compound 127] | 500 to 1000
CCOc1nc(N2CC3CCC2C2CNCC32)ncc1C(=O)Nc1cc(F)c2nc(C)cn2c1 (stereo not shown) [Compound 128] | < 500
CCOc1nc(N2CCC(C3(O)CNC3)CC2)ncc1C(=O)Nc1cc(F)c2nc(C)cn2c1 [Compound 129] | > 3000
CCOc1nc(N2C3CCCC2CNC3)ncc1C(=O)Nc1cc(F)c2nc(C)cn2c1 [Compound 130] | 1000 to 3000
CCOc1nc(N2CC(C)CNC(C)C2)ncc1C(=O)Nc1cc(F)c2nc(C)cn2c1 (stereo not shown) [Compound 131] | 500 to 1000
CCOc1nc(N2CCCC3CNCCC32)ncc1C(=O)Nc1cc(F)c2nc(C)cn2c1 (stereo not shown) [Compound 132] | < 500
CCOc1nc(N2CCC(C3NCC34CCC4)CC2)ncc1C(=O)Nc1cc(F)c2nc(C)cn2c1 (stereo not shown) [Compound 133] | 500 to 1000
CCOc1nc(N2CC3CNC(C3)C2)ncc1C(=O)Nc1cc(F)c2nc(C)cn2c1 (stereo not shown) [Compound 134] | 1000 to 3000
CCOc1nc(N2CCC3CCNCC3C2)ncc1C(=O)Nc1cc(F)c2nc(C)cn2c1 (stereo not shown) [Compound 135] | 500 to 1000
CCOc1nc(N2CC3CNCCC32)ncc1C(=O)Nc1cc(F)c2nc(C)cn2c1 (stereo not shown) [Compound 136] | < 500
CCOc1nc(N2CCN(C3CCNCC3)CC2)ncc1C(=O)Nc1cc(F)c2nc(C)cn2c1 [Compound 137] | > 3000
CCOc1nc(N(C)C2CCCCNC2)ncc1C(=O)Nc1cc(F)c2nc(C)cn2c1 (stereo not shown) [Compound 138] | 1000 to 3000
CCOc1nc(N2CC(C3CCNCC3)C2)ncc1C(=O)Nc1cc(F)c2nc(C)cn2c1 [Compound 141] | 500 to 1000
CCOc1nc(N2CCC(C3CNC3)CC2)ncc1C(=O)Nc1cc(F)c2nc(C)cn2c1 [Compound 142] | 1000 to 3000
CCOc1nc(N2CC(C3CNC3)C2)ncc1C(=O)Nc1cc(F)c2nc(C)cn2c1 [Compound 143] | < 500
CCOc1nc(N2CCOC3(CNC3)C2)ncc1C(=O)Nc1cc(F)c2nc(C)cn2c1 [Compound 144] | > 3000
CCOc1nc(N2CCOC3(CCCNC3)C2)ncc1C(=O)Nc1cc(F)c2nc(C)cn2c1 (stereo not shown) [Compound 145] | > 3000
CCOc1nc(N2CCCC(C3CCNCC3)C2)ncc1C(=O)Nc1cc(F)c2nc(C)cn2c1 (stereo not shown) [Compound 146] | < 500
CCOc1nc(N2CCCC(C3CCCCN3)C2)ncc1C(=O)Nc1cc(F)c2nc(C)cn2c1 (stereo not shown) [Compound 147] | < 500
CCOc1nc(N2C[C@]3(C)CNC[C@]3(C)C2)ncc1C(=O)Nc1cc(F)c2nc(C)cn2c1 [Compound 148] | 1000 to 3000
CCOc1nc(N2CC(C)OC3(CCNC3)C2)ncc1C(=O)Nc1cc(F)c2nc(C)cn2c1 (stereo not shown) [Compound 149] | > 3000

SMILES | IC50 [nM]
CCOc1nc(N2CCCCC(C3CNC3)C2)ncc1C(=O)Nc1cc(F)c2nc(C)cn2c1 (stereo not shown) [Compound 150] | 1000 to 3000
CCOc1nc(N2CC34CCCC3(CNC4)C2)ncc1C(=O)Nc1cc(F)c2nc(C)cn2c1 (stereo not shown) [Compound 151] | 1000 to 3000
CCOc1nc(N2CC3(CCNCC3)CC2C)ncc1C(=O)Nc1cc(F)c2nc(C)cn2c1 (stereo not shown) [Compound 152] | 500 to 1000
CCNC1CCN(c2ncc(C(=O)Nc3cc(F)c4nc(C)cn4c3)c(OCC)n2)C1 (stereo not shown) [Compound 154] | < 500
CCOc1nc(N2CCC(NCCOC)CC2)ncc1C(=O)Nc1cc(F)c2nc(C)cn2c1 [Compound 155] | < 500
CCOc1nc(N2C3CCC2CC(NC)C3)ncc1C(=O)Nc1cc(F)c2nc(C)cn2c1 (stereo not shown) [Compound 157] | < 500
CCOc1nc(N2CCCC(C3CNC3)C2)ncc1C(=O)Nc1cc(F)c2nc(C)cn2c1 (stereo not shown) [Compound 159] | > 3000
CCOc1nc(N(C)C2CCNCC2C)ncc1C(=O)Nc1cc(F)c2nc(C)cn2c1 (stereo not shown) [Compound 160] | < 500
CCOc1nc(N(C)[C@H]2CCCNC2)ncc1C(=O)Nc1cc(F)c2nc(C)cn2c1 [Compound 163] | < 500
CCOc1nc(N2CCC(NCC3CC3)CC2)ncc1C(=O)Nc1cc(F)c2nc(C)cn2c1 [Compound 164] | < 500
CCOc1nc(N2CC(CO)C3(CNC3)C2)ncc1C(=O)Nc1cc(F)c2nc(C)cn2c1 (stereo not shown) [Compound 165] | 1000 to 3000
CCOc1nc(N2CC34CCCCC3(CNC4)C2)ncc1C(=O)Nc1cc(F)c2nc(C)cn2c1 (stereo not shown) [Compound 166] | 1000 to 3000
CCOc1nc(N2CCC3CCC(C2)N3)ncc1C(=O)Nc1cc(F)c2nc(C)cn2c1 (stereo not shown) [Compound 167] | 1000 to 3000
CCOc1nc(N(CC)C2CCCNCC2)ncc1C(=O)Nc1cc(F)c2nc(C)cn2c1 (stereo not shown) [Compound 168] | < 500
CCOc1nc(N2CCNCC(O)C2)ncc1C(=O)Nc1cc(F)c2nc(C)cn2c1 (stereo not shown) [Compound 171] | 1000 to 3000
CCOc1nc(N(C)C2CCCNCC2)ncc1C(=O)Nc1cc(F)c2nc(C)cn2c1 (stereo not shown) [Compound 173] | < 500
CCOc1nc(N2C3CCNCC2CC3)ncc1C(=O)Nc1cc(F)c2nc(C)cn2c1 (stereo not shown) [Compound 175] | > 3000
CCNC1CCCN(c2ncc(C(=O)Nc3cc(F)c4nc(C)cn4c3)c(OCC)n2)C1 (stereo not shown) [Compound 176] | 500 to 1000
CCOc1nc(N2CCCC(C3CCCN3)C2)ncc1C(=O)Nc1cc(F)c2nc(C)cn2c1 (stereo not shown) [Compound 180] | < 500
CCOc1nc(N2CC[C@@H]3CNC[C@@H]3CC2)ncc1C(=O)Nc1cc(F)c2nc(C)cn2c1 [Compound 181] | 1000 to 3000
CCOc1nc(N2CCC3(CC2)CNC3C(C)C)ncc1C(=O)Nc1cc(F)c2nc(C)cn2c1 (stereo not shown) [Compound 182] | 500 to 1000
CCOc1nc(N2CCCC3(CCNC3)C2)ncc1C(=O)Nc1cc(F)c2nc(C)cn2c1 (stereo not shown) [Compound 183] | > 3000
CCOc1nc(N2CCCC(C3CCCNC3)C2)ncc1C(=O)Nc1cc(F)c2nc(C)cn2c1 (stereo not shown) [Compound 184] | 500 to 1000

Same assay, conditions: Homo sapiens; at 5 μM; PMS1 mini-gene firefly luciferase reporter in HEK293 cells; read-out: PMS1% Effect at 5 μM

SMILES | activation at 5 µM [%]
CCOc1nc(N2CCNCC(F)(F)C2)ncc1C(=O)Nc1cc(F)c2nc(C)cn2c1 [Compound 140] | < 50
CCOc1nc(N2CCCC(OC3CNC3)C2)ncc1C(=O)Nc1cc(F)c2nc(C)cn2c1 (stereo not shown) [Compound 153] | 50 to 75
CCOc1nc(N2CC(C)OC3(CCNCC3)C2)ncc1C(=O)Nc1cc(F)c2nc(C)cn2c1 (stereo not shown) [Compound 162] | < 50
CCOc1nc(N2CCCC3(CNCCO3)C2)ncc1C(=O)Nc1cc(F)c2nc(C)cn2c1 (stereo not shown) [Compound 172] | < 50
